Assay results taken from patent US12377087B2, “Compounds for the treatment of cancer” (UNIVERSITY OF LOUISVILLE RESEARCH FOUNDATION, INC., priority 2015, dated 2025).

How the values were obtained:
MDA-MB-231 = experiment: viable cell count of MDA-MB-231 cells; assay type: cell-based; conditions: MDA-MB-231, 48 hours
Description: (§1) Cell Viability: Cells were incubated in 20% trypan blue (Sigma) for 5 minutes. Cells excluding trypan blue were counted using a standard hemocytometer (Hausser Scientific) to determine total numbers of viable cells. Data are expressed as mean±SD of three experiments.

[1] = two-week oral toxicity study; assay type: in vivo; conditions: C57BL/6 mice, 120 mg/kg PO for two weeks
Description: Given the potential usefulness of oral administration in terms of cost and convenience, we elected to pursue this route in subsequent toxicity and efficacy pre-clinical studies. Initially, we dosed C57BL/6 mice with 120 mg/kg PO for two weeks and analyzed the effect on complete blood counts, electrolytes, hepatic and renal function, body mass and the gross and histological appearance of the brain, heart, lungs, liver, kidneys and spleen. […] Next, the effects of oral administration of 5MPN on intratumoral F2,6BP and glucose uptake by LLC xenografts was examined. […] It was confirmed that 5MPN caused a G1 arrest in LLC cells in vitro similar to H460 cells (FIG. 4G). The number of Ki67-positive cells was examined since Ki-67 expression correlates with later S and G2 phases of the cell cycle (Sasaki K et al. The cell cycle associated change of the Ki-67 reactive nuclear antigen expression. J Cell Physiol 1987 December; 133(3):579-84).

LLC xenografts = experiment: intratumoral F2,6BP in LLC xenografts; assay type: in vivo, C57BL/6 mice; conditions: 120 mg/kg by gavage daily, 10 days
Description: F2,6BP measurements: Cells or tissues were prepared as previously described and F2,6BP content measured using a coupled enzyme reaction following the method of Van Schaftingen et at (Van Schaftingen E et al. A kinetic study of pyrophosphate: fructose-6-phosphate phosphotransferase from potato tubers. Application to a microassay of fructose 2,6-bisphosphate. Eur J Biochem 1982 December; 129(1): 191-5) and normalized to total cellular protein measured by the bicinchoninic acid assay (BCA, Thermo Scientific). […] In order to measure F2,6BP, cells were harvested, washed with PBS, lysed in NaOH/Tris acetate by heating at 80° C. and lysates neutralized to pH 7.2. F2,6BP content was measured using a coupled enzyme reaction following the method of Van Schaftingen et al (Eur J Biochem. 1982; 129(1): 191-195). The F2,6BP concentration was normalized to total cellular protein measured by the bicinchoninic acid assay (BCA, Thermo Scientific) All data are expressed as the mean±SD of three experiments. Statistical significance was assessed by the two-sample t test (independent variable).
At the end of the experiment, animals were euthanized, tumors removed and sections fixed in 10% formaldehyde for immunohistochemistry or snap-frozen in liquid nitrogen for analyses. […]

LLC cells = experiment: in vitro cell cycle analysis of LLC cells; assay type: cell-based; conditions: 10 μM 5MPN
Description: Flow Cytometry: To measure apoptosis, cells were stained with annexin V and propidium iodide and examined as previously described. […] DMSO used as vehicle. For cell cycle experiments, cells were detached, washed with cold PBS and fixed in 70% ethanol (4° C. 30 minutes). The cells then were pelleted by centrifugation, resuspended in PBS containing PI and RNase A, incubated at 37° C. in the dark for 30 minutes and analyzed by flow cytometry (BD FACSCalibur). Data were analyzed using FlowJo software (TREE STAR Inc.). Results were calculated as the mean±SD of three experiments.

LNCaP = experiment: viable cell count of LNCaP cells; assay type: cell-based; conditions: 48 hours
Description: as §1

[2] = pharmacokinetic profile of 5MPN after IV and oral administration; assay type: in vivo; conditions: C57BL/6 mice
Description: In vivo Studies. The pharmacokinetic profile was determined in female C57BL/6 mice following IV and oral administration of 5MPN. Using only female mice lowered the animal numbers required for meaningful results without issues of potential gender differences in exposure. Eight time points (n=3/time point) were used to determine PK parameters calculated using WinNonLin v5.0. Plasma samples were extracted using acetonitrile and analyzed by LC/MS-MS using a PhenomexSynergi Polar-RP 4 micron 50×2.0 mm column eluted with a biphasic mobile phase (0.5% formic acid in acetonitrile and water).

PFKFB3 = PFKFB3 (Homo sapiens, UniProt Q16875); experiment: kinase activity of PFKFB3; assay type: biochemical; conditions: 10 μM
Chain of PFKFB3 (Q16875 whole entry, species assumed): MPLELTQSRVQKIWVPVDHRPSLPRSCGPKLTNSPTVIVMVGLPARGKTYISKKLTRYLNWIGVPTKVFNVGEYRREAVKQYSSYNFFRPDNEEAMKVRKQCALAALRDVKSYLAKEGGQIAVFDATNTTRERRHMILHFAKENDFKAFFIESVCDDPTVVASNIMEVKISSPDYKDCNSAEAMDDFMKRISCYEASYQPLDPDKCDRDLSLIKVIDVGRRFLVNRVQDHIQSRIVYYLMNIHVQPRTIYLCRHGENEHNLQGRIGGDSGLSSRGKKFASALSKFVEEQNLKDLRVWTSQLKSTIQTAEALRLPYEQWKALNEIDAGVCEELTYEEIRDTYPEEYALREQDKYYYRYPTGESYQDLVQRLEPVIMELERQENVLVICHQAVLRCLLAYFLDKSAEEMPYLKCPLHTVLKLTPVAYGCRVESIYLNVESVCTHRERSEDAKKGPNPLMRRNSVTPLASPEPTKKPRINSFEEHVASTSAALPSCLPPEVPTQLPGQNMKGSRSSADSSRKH

PFK-1 = experiment: kinase activity of PFK-1; assay type: biochemical; conditions: 10 μM

Compound: COc1cccc2c(NCCCCCO[N+](=O)[O-])ccnc12 [5MPN, 5-[(8-methoxyquinolin-4-yl)amino]pentyl nitrate]
- growth, viable cells (MDA-MB-231): dose-dependent reduction in growth
- toxicity: blood counts, electrolytes, hepatic and renal function, body mass, organ histology, behavioral or clinical changes [1]: no signs of toxicity
- intratumoral F2,6BP (LLC xenografts): marked reduction
- cell cycle arrest in LLC cells in vitro (LLC cells): G1 arrest
- growth, viable cells (LNCaP): dose-dependent reduction in growth
- oral bioavailability [2]: High Oral Bioavailability
- pharmacokinetics of intravenous and oral administration ([2]; IV and oral): both routes were adequate to achieve potentially therapeutic concentrations
- inhibition of PFKFB3 kinase activity (PFKFB3): no inhibition of kinase activity
- inhibition of PFK-1 kinase activity (PFK-1): no inhibition of kinase activity
